Data published in ChEMBL document CHEMBL1201862, “PubChem BioAssay data set” (2004).
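Compound exposure: 48 hours, 5 concentrations, 96-well plates. Abbreviation: GI50, concentration required for 50% inhibition of growth.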 The source made the active and inactive calls. Cut-off read from the data, not from the text of the source: active = GI50 up to about 1.1 µM and inactive = higher.

Assays:
Assay in all cases: NCI-60 cell line screen, 48 h
CCRF-CEM = test system: CCRF-CEM
OVCAR-8 = test system: OVCAR-8
HL-60 = test system: HL-60
SNB-19 = test system: SNB-19
SNB-75 = test system: SNB-75
HOP-92 = test system: HOP-92
EKVX = test system: EKVX
A549 = test system: A549
MDA-MB-435 = test system: MDA-MB-435
HCT-116 = test system: HCT-116
SK-MEL-5 = test system: SK-MEL-5
SR = test system: SR
UACC-62 = test system: UACC-62
RPMI-8226 = test system: RPMI-8226
SF-295 = test system: SF-295
IGROV-1 = test system: IGROV-1
TK-10 = test system: TK-10
HCC 2998 = test system: HCC 2998
ACHN = test system: ACHN
NCI-H226 = test system: NCI-H226

Structure (SMILES)	GI50 (CCRF-CEM)	GI50 (OVCAR-8)	GI50 (HL-60)	GI50 (SNB-19)	GI50 (SNB-75)	GI50 (HOP-92)	GI50 (EKVX)	GI50 (A549)	GI50 (MDA-MB-435)	GI50 (HCT-116)	GI50 (SK-MEL-5)	GI50 (SR)	GI50 (UACC-62)	GI50 (RPMI-8226)	GI50 (SF-295)	GI50 (IGROV-1)	GI50 (TK-10)	GI50 (HCC 2998)	GI50 (ACHN)	GI50 (NCI-H226)
CCN(CC)c1ccc(/C=C(\C#N)c2nc(N)nc(N3N=C(C)CC3(C)C)n2)cc1	19.1 µM (inactive)	10.6 µM (inactive)	43.7 µM (inactive)	17.9 µM (inactive)	10 µM (inactive)	6.97 µM (inactive)	24.4 µM (inactive)	16.2 µM (inactive)	21.1 µM (inactive)	15.9 µM (inactive)	21.6 µM (inactive)	12.2 µM (inactive)	30.3 µM (inactive)	32 µM (inactive)	16.6 µM (inactive)	7.82 µM (inactive)	14.8 µM (inactive)	30.1 µM (inactive)	14.7 µM (inactive)	2.9 µM (inactive)
[N-]=[N+]=NCC(=O)c1cnc(O)nc1O	> 100 µM (inactive)	> 100 µM (inactive)	> 100 µM (inactive)	> 100 µM (inactive)	> 100 µM (inactive)	> 100 µM (inactive)	> 100 µM (inactive)	> 100 µM (inactive)	> 100 µM (inactive)	> 100 µM (inactive)	> 100 µM (inactive)	> 100 µM (inactive)	> 100 µM (inactive)	> 100 µM (inactive)	> 100 µM (inactive)	> 100 µM (inactive)	> 100 µM (inactive)	> 100 µM (inactive)	> 100 µM (inactive)	> 100 µM (inactive)
COc1cc(-c2cc(=O)c3c(O)c(OC)c(OC)c(OC)c3o2)cc(OC)c1OC [GARDENIN]	> 100 µM (inactive)	4.57 µM (inactive)	> 60 µM (inactive)	10.7 µM (inactive)	2.23 µM (inactive)	4.04 µM (inactive)	22.3 µM (inactive)	7.18 µM (inactive)	> 100 µM (inactive)	4.5 µM (inactive)	11 µM (inactive)	> 100 µM (inactive)	32.4 µM (inactive)	> 44.7 µM (inactive)	8.47 µM (inactive)	68.4 µM (inactive)	6.92 µM (inactive)	22.5 µM (inactive)	3.33 µM (inactive)	13.7 µM (inactive)
O=C1CNc2cc(N3CCN(c4cccc(C(F)(F)F)c4)CC3)ccc2N1	38.4 µM (inactive)	83.2 µM (inactive)	19.9 µM (inactive)	> 100 µM (inactive)	84.7 µM (inactive)	> 100 µM (inactive)	91 µM (inactive)	24.7 µM (inactive)	95.5 µM (inactive)	35.7 µM (inactive)	18.9 µM (inactive)	46.3 µM (inactive)	35.1 µM (inactive)	31.7 µM (inactive)	24.3 µM (inactive)	30.8 µM (inactive)	69.2 µM (inactive)	68.1 µM (inactive)	50.6 µM (inactive)	19.6 µM (inactive)
[N-]=[N+]=CC(=O)C1CCCN1C(=O)c1ccccc1 (stereo not given)	> 10 µM (inactive)	> 10 µM (inactive)	> 10 µM (inactive)	> 10 µM (inactive)	0.585 µM (active)	> 10 µM (inactive)	> 10 µM (inactive)	> 10 µM (inactive)	> 10 µM (inactive)	> 10 µM (inactive)	> 10 µM (inactive)	> 10 µM (inactive)	> 10 µM (inactive)	> 10 µM (inactive)	> 10 µM (inactive)	> 10 µM (inactive)	> 10 µM (inactive)	> 10 µM (inactive)	> 10 µM (inactive)	> 10 µM (inactive)
Cc1c2cccc(Sc3ccccc3)c2c2c3c(cccc13)[S+](c1ccccc1)C2 (stereo not given)	1.77 µM (inactive)	2.67 µM (inactive)	0.935 µM (active)	1.73 µM (inactive)	1.94 µM (inactive)	2.03 µM (inactive)	2.71 µM (inactive)	2.88 µM (inactive)	1.75 µM (inactive)	2.06 µM (inactive)	0.748 µM (active)	0.838 µM (active)	1.66 µM (inactive)	0.221 µM (active)	1.78 µM (inactive)	2.34 µM (inactive)	2.67 µM (inactive)	1.66 µM (inactive)	4.04 µM (inactive)	2.33 µM (inactive)
CC/C=C\C/C=C\C/C=C\CCCCCCCC(=O)OC(COC(=O)CCCCCCCCCCCCCCCCC)COC1OC(CO)C(O)C(O)C1O (stereo not given)	> 25 µM (inactive)	15.9 µM (inactive)	> 25 µM (inactive)	> 25 µM (inactive)	> 25 µM (inactive)	> 25 µM (inactive)	4.7 µM (inactive)	> 25 µM (inactive)	> 25 µM (inactive)	> 25 µM (inactive)	> 25 µM (inactive)	> 25 µM (inactive)	> 25 µM (inactive)	8.57 µM (inactive)	> 25 µM (inactive)	12.3 µM (inactive)	> 25 µM (inactive)	> 25 µM (inactive)	> 25 µM (inactive)	> 25 µM (inactive)
OCCOc1ccc(-c2cc(-c3ccccn3)nc(-c3ccccn3)c2)cc1	0.0618 µM (active)	0.07 µM (active)	0.0538 µM (active)	0.284 µM (active)	0.458 µM (active)	0.499 µM (active)	0.107 µM (active)	0.172 µM (active)	0.526 µM (active)	0.115 µM (active)	0.23 µM (active)	0.11 µM (active)	0.206 µM (active)	0.242 µM (active)	0.222 µM (active)	0.286 µM (active)	0.889 µM (active)	0.0578 µM (active)	0.0661 µM (active)	0.661 µM (active)
CC1=Cc2ccc(C)cc2C(=O)C1=O	0.176 µM (active)	5.3 µM (inactive)	1 µM (active)	22.2 µM (inactive)	8.3 µM (inactive)	6.18 µM (inactive)	18.3 µM (inactive)	23.7 µM (inactive)	2.06 µM (inactive)	5.47 µM (inactive)	20.4 µM (inactive)	1.58 µM (inactive)	20.2 µM (inactive)	2.16 µM (inactive)	18.5 µM (inactive)	14.4 µM (inactive)	1.83 µM (inactive)	14.9 µM (inactive)	1.95 µM (inactive)	36.1 µM (inactive)
CN1CCN(CCCCN2c3ccccc3Sc3cc(N=[N+]=[N-])ccc32)CC1	2.14 µM (inactive)	1.82 µM (inactive)	2.26 µM (inactive)	3.62 µM (inactive)	3.39 µM (inactive)	1.94 µM (inactive)	5.69 µM (inactive)	1.94 µM (inactive)	1.7 µM (inactive)	1.62 µM (inactive)	1.57 µM (inactive)	5.5 µM (inactive)	2.13 µM (inactive)	2.31 µM (inactive)	2.18 µM (inactive)	1.93 µM (inactive)	1.91 µM (inactive)	1.39 µM (inactive)	2.15 µM (inactive)	5.93 µM (inactive)
COc1cccc(C2CC(C)(O)Oc3cc4c(cc32)OCO4)c1 (stereo not given)	47.8 µM (inactive)	29.6 µM (inactive)	17.2 µM (inactive)	32.6 µM (inactive)	18.6 µM (inactive)	26.7 µM (inactive)	36.1 µM (inactive)	31 µM (inactive)	3.3 µM (inactive)	9.44 µM (inactive)	14.2 µM (inactive)	4.58 µM (inactive)	14.4 µM (inactive)	16.1 µM (inactive)	17.8 µM (inactive)	24 µM (inactive)	21.1 µM (inactive)	27.5 µM (inactive)	25.9 µM (inactive)	17.3 µM (inactive)
N#Cc1nc2ccccc2nc1N1CCN(c2ccc([N+](=O)[O-])cc2)CC1	> 100 µM (inactive)	> 100 µM (inactive)	> 100 µM (inactive)	> 100 µM (inactive)	> 100 µM (inactive)	> 100 µM (inactive)	> 100 µM (inactive)	> 100 µM (inactive)	> 100 µM (inactive)	> 100 µM (inactive)	> 100 µM (inactive)	0.0339 µM (active)	> 100 µM (inactive)	> 100 µM (inactive)	> 100 µM (inactive)	> 100 µM (inactive)	> 100 µM (inactive)	> 100 µM (inactive)	> 100 µM (inactive)	> 100 µM (inactive)
COc1ccc(C(OCC2OC(n3ccc(Oc4c(F)c(F)c(F)c(F)c4F)nc3=O)CC2OP(OCCC#N)N(C(C)C)C(C)C)(c2ccccc2)c2ccc(OC)cc2)cc1 (stereo not given)	77.3 µM (inactive)	> 100 µM (inactive)	> 100 µM (inactive)	> 100 µM (inactive)	> 100 µM (inactive)	> 100 µM (inactive)	> 10 µM (inactive)	> 100 µM (inactive)	> 100 µM (inactive)	> 100 µM (inactive)	68.2 µM (inactive)	> 100 µM (inactive)	> 100 µM (inactive)	> 100 µM (inactive)	> 100 µM (inactive)	> 100 µM (inactive)	> 100 µM (inactive)	> 100 µM (inactive)	> 100 µM (inactive)	> 100 µM (inactive)
CCCCCCCCCCCCCCCCCCOCC(O)COP(=O)(O)OCC1OC(n2cc(F)c(=O)[nH]c2=O)CC1O (stereo not given)	0.318 µM (active)	1.64 µM (inactive)	6.56 µM (inactive)	10.3 µM (inactive)	2.89 µM (inactive)	4.02 µM (inactive)	37 µM (inactive)	0.51 µM (active)	17.7 µM (inactive)	1.29 µM (inactive)	4.01 µM (inactive)	0.533 µM (active)	0.579 µM (active)	2.17 µM (inactive)	0.682 µM (active)	11.4 µM (inactive)	8.93 µM (inactive)	0.0467 µM (active)	0.38 µM (active)	> 35.6 µM (inactive)
